The test concerns the target catD / beta-secretase (BACE). Put plainly: CatD/BACE selectivity (ratio of IC50 values). Type of test: biochemical. The conditions noted are these: each value is an average of four experimental runs; multiple values = more than one experiment. On the procedure: Selectivity was calculated as a ratio of inhibition (IC50) values in which the inhibition of beta-secretase was compared to the inhibition of other aspartyl proteases.
In the following examples, each value is an average of four experimental runs and multiple values for one compound indicate that more than one experiment was conducted.

The values below come from patent publication US20060014790A1, “Methods of treatment of amyloidosis using spirocyclohexane aspartyl-protease inhibitors” (priority 2004, published 2006).

Several values for one entry are separate records, joined by “and”; a condition that tells them apart may be missing. Equal values may be shown once.

On to `CONC1CCC(NCC(O)C(Cc2cc(F)cc(F)c2)NC(C)=O)(c2cccc(C(C)(C)C)c2)CC1` (single isomer, unassigned) [196A-20 Diastereomer A, N-(4-(1-(3-tert-butylphenyl)-4-(methoxyamino)cyclohexylamino)-1-(3,5-difluorophenyl)-3-hydroxybutan-2-yl)acetamide], for which the “IC50 catD/IC50 BACE” value was 5.0.
To `CONC1CCC(NCC(O)C(Cc2cc(F)cc(F)c2)NC(C)=O)(c2cccc(C(C)(C)C)c2)CC1` (single isomer, unassigned) [196A-21 Diastereomer B, N-(4-(1-(3-tert-butylphenyl)-4-(methoxyamino)cyclohexylamino)-1-(3,5-difluorophenyl)-3-hydroxybutan-2-yl)acetamide] belongs 12.3; to `CNC1CCC(NCC(O)C(Cc2cc(F)cc(F)c2)NC(C)=O)(c2cccc(C(C)(C)C)c2)CC1` (single isomer, unassigned) [196A-26 Diastereomer A, N-(4-(1-(3-tert-butylphenyl)-4-(methylamino)cyclohexylamino)-1-(3,5-difluorophenyl)-3-hydroxybutan-2-yl)acetamide], over 4.7.
In the case of `CNC1CCC(NCC(O)C(Cc2cc(F)cc(F)c2)NC(C)=O)(c2cccc(C(C)(C)C)c2)CC1` (single isomer, unassigned) [196A-28 Diastereomer B, N-(4-(1-(3-tert-butylphenyl)-4-(methylamino)cyclohexylamino)-1-(3,5-difluorophenyl)-3-hydroxybutan-2-yl)acetamide], the “IC50 catD/IC50 BACE” value was over 3.9.
The value for `CC(=O)NC(Cc1cc(F)cc(F)c1)C(O)CNC1(c2cccc(C(C)(C)C)c2)CCC(N)CC1` (single isomer, unassigned) [196A-29 Diastereomer A, N-(4-(1-(3-tert-butylphenyl)-4-aminocyclohexylamino)-1-(3,5-difluorophenyl)-3-hydroxybutan-2-yl)acetamide] was over 8.4.
`CC(=O)NC(Cc1cc(F)cc(F)c1)C(O)CNC1(c2cccc(C(C)(C)C)c2)CCC(N)CC1` (single isomer, unassigned) [196A-30 Diastereomer B, N-(4-(1-(3-tert-butylphenyl)-4-aminocyclohexylamino)-1-(3,5-difluorophenyl)-3-hydroxybutan-2-yl)acetamide]: the “IC50 catD/IC50 BACE” value is recorded as over 8.4.
`CC(=O)NC(Cc1cc(F)cc(F)c1)C(O)CNC1(c2cccc(C(C)(C)C)c2)CCC(C(F)(F)F)CC1` (single isomer, unassigned) [196A-32 Diastereomer A, N-(4-(1-(3-tert-butylphenyl)-4-(trifluoromethyl)cyclohexylamino)-1-(3,5-difluorophenyl)-3-hydroxybutan-2-yl)acetamide]: the “IC50 catD/IC50 BACE” value is recorded as 1.7.
To `CC(=O)NC1CCC(NCC(O)C(Cc2cc(F)cc(F)c2)NC(C)=O)(c2cccc(C(C)(C)C)c2)CC1` (single isomer, unassigned) [196A-33 Diastereomer A, N-[3-[4-Acetylamino-1-(3-tert-butyl-phenyl)-cyclohexylamino]-1-(3,5-difluoro-benzyl)-2-hydroxy-propyl]-acetamide] belongs 34.4; to `CC(=O)NC(Cc1cc(F)cc(F)c1)C(O)CNC1(c2cccc(C(C)(C)C)c2)CCC(O)(CO)CC1` (single isomer, unassigned) [196A-35 Diastereomer A, N-[3-[1-(3-tert-Butyl-phenyl)-4-hydroxy-4-hydroxymethyl-cyclohexylamino]-1-(3,5-difluoro-benzyl)-2-hydroxy-propyl]-acetamide], over 7.4; to `CC(=O)NC(Cc1cc(F)cc(F)c1)C(O)CNC1(c2cccc(C(C)(C)C)c2)CCC(O)(CO)CC1` (single isomer, unassigned) [196A-36 Diastereomer B, N-[3-[1-(3-tert-Butyl-phenyl)-4-hydroxy-4-hydroxymethyl-cyclohexylamino]-1-(3,5-difluoro-benzyl)-2-hydroxy-propyl]-acetamide], over 5.3.
The value for `COC(=O)NC1CCC(NCC(O)C(Cc2cc(F)cc(F)c2)NC(C)=O)(c2cccc(C(C)(C)C)c2)CC1` (single isomer, unassigned) [196A-37 Diastereomer A, methyl 4-(3-acetamido-4-(3,5-difluorophenyl)-2-hydroxybutylamino)-4-(3-tert-butylphenyl)cyclohexylcarbamate] was 7.7; that for `COC(=O)NC1CCC(NCC(O)C(Cc2cc(F)cc(F)c2)NC(C)=O)(c2cccc(C(C)(C)C)c2)CC1` (single isomer, unassigned) [196A-38 Diastereomer B, methyl 4-(3-acetamido-4-(3,5-difluorophenyl)-2-hydroxybutylamino)-4-(3-tert-butylphenyl)cyclohexylcarbamate] was 2.6 and 2.0 and 2.3; that for `CC(=O)NC(Cc1cc(F)cc(F)c1)C(O)CNC1(c2cccc(C(C)(C)C)c2)CCC(N(O)C(C)=O)CC1` (single isomer, unassigned) [196A-39 Diastereomer A] was 9.6.
The value for `CC(=O)NC(Cc1cc(F)cc(F)c1)C(O)CNC1(c2cccc(C(C)(C)C)c2)CCC(NS(C)(=O)=O)CC1` (single isomer, unassigned) [196A-41 Diastereomer A, N-(4-(1-(3-tert-butylphenyl)-4-(methylsulfonamido)cyclohexylamino)-1-(3,5-difluorophenyl)-3-hydroxybutan-2-yl)acetamide] was 18.1.
`CC(=O)NC(Cc1cc(F)cc(F)c1)C(O)CNC1(c2cccc(C(C)(C)C)c2)CCC(NS(C)(=O)=O)CC1` (single isomer, unassigned) [196A-42 Diastereomer B, N-(4-(1-(3-tert-butylphenyl)-4-(methylsulfonamido)cyclohexylamino)-1-(3,5-difluorophenyl)-3-hydroxybutan-2-yl)acetamide]: the “IC50 catD/IC50 BACE” value was over 3.0.
`CC(=O)NC(Cc1cc(F)cc(F)c1)C(O)CNC1(c2cccc(C(C)(C)C)c2)CCC(NC=O)CC1` (single isomer, unassigned) [196A-43 Diastereomer A, N-(4-(1-(3-tert-butylphenyl)-4-formamidocyclohexylamino)-1-(3,5-difluorophenyl)-3-hydroxybutan-2-yl)acetamide]: the “IC50 catD/IC50 BACE” value is reported as 84.5.
On to `CNC(=O)NC1CCC(NCC(O)C(Cc2cc(F)cc(F)c2)NC(C)=O)(c2cccc(C(C)(C)C)c2)CC1` (single isomer, unassigned) [196A-45 Diastereomer A, 1-(4-(3-acetamido-4-(3,5-difluorophenyl)-2-hydroxybutylamino)-4-(3-tert-butylphenyl)cyolohexyl)-3-methylurea], for which the “IC50 catD/IC50 BACE” value was over 3.5.
To `CNC(=O)NC1CCC(NCC(O)C(Cc2cc(F)cc(F)c2)NC(C)=O)(c2cccc(C(C)(C)C)c2)CC1` (single isomer, unassigned) [196A-46 Diastereomer B, 1-(4-(3-acetamido-4-(3,5-difluorophenyl)-2-hydroxybutylamino)-4-(3-tert-butylphenyl)cyclohexyl)-3-methylurea] belongs over 1.3; to `CC(=O)NC(Cc1cc(F)cc(F)c1)C(O)CNC1(c2cccc(C(C)(C)C)c2)CCC([S+](C)[O-])CC1` (stereo not shown) [196A-34 Mix, N-(4-(1-(3-tert-butylphenyl)-4-(methylsulfinyl)cyclohexylamino)-1-(3,5-difluorophenyl)-3-hydroxybutan-2yl)acetamide], 2.1.
